Reference: US9187768B2, “Alcoholic fermentation yeast and method for producing ethanol using same” (NIPPON STEEL & SUMIKIN ENGINEERING CO., LTD., priority 2010, dated 2015)

Tested on: general yeast
Assay: Ethanol fermentation by a general yeast with limonene added to YPD culture medium
Assay type: cell-based, Saccharomyces Cerevisiae
Conditions: 0.1% v/v of limonene added
Description: Generally, yeast is present in a sugar solution as fine solid particles and easily adsorbs oily substances. Therefore, the reason for the above-described experimental results may be that the limonene (in an oil form) added in a small amount (0.05% v/v) adsorbed to the yeast, causing fermentation inhibition. To remove limonene, which is a fermentation inhibitor, from a juice residue extract, limonene in a solid form, which accounts for 75% or larger of the total amount of limonene, must be removed, and limonene in a micelle form present as a light liquid (an oily substance) must also be removed. […] Therefore, fermentability tended to be unstable due to the influence of contamination etc. and it was difficult to maintain high fermentability over a long period of time.

## C=C(C)[C@H]1CC=C(C)CC1 [limonene]
  rate of ethanol production: about 20%
